The experiment addresses T1, Lipoxygenase (type I-B) (Glycine max, UniProt P08170).
T1 sequence (P08170 1-839): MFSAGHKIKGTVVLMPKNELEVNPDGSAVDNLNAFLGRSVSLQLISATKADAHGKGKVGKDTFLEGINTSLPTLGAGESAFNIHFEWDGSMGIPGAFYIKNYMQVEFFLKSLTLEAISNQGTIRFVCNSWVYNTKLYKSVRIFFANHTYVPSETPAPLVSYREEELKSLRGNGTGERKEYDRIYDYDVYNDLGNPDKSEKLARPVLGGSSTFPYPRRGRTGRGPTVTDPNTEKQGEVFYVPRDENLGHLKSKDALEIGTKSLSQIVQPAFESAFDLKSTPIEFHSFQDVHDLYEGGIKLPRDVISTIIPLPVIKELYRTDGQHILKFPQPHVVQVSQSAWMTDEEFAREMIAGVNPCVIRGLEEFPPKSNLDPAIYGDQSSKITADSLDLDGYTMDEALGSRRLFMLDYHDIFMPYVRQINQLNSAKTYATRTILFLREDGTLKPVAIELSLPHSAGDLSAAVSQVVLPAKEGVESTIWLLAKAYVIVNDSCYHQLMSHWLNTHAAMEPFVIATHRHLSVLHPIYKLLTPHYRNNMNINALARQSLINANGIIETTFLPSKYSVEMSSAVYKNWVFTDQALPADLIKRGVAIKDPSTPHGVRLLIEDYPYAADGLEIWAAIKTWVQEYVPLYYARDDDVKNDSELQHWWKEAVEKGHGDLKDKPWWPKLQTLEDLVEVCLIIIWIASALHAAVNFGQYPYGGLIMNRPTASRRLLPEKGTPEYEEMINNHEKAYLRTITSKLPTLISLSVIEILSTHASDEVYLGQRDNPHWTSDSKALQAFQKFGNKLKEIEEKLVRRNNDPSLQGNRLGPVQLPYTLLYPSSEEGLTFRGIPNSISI
In words: absorbance at […] nm, linoleic acid oxidation. The format is biochemical.

`C[C@H]1C(=O)CC[C@@H]2[C@]1(C)CC[C@H]1[C@@]2(C)CC[C@@]2(C)[C@@H]3CC(C)(C)CC[C@]3(C)CC[C@]12C` [compound 1, friedelin] gave an IC50 of 57.3 µM.

`CC1(C)C[C@@H](O)[C@]2(C)CC[C@]3(C)C(=CC[C@@H]4[C@@]5(C)CC[C@H](O)C(C)(C)[C@@H]5CC[C@]43C)[C@@H]2C1` [compound 3, sopharadiol] showed an IC50 of 54 µM.

(Values after article PMC5411871 (African Journal of Traditional, Complementary, and …, 2016).)
